The source of these data is patent publication US11591326B2, “Inhibitors of protein arginine methyltransferase 5 (PRMT5), pharmaceutical products thereof, and methods thereof” (PHARMABLOCK SCIENCES (NANJING), INC., priority 2018, dated 2023).

Each structure is given as a SMILES string. pIC50: −log10 of the molar value.

As a reminder, the pIC50 is −log10 of the IC50, conventionally taken in molar units.

In the test the target is Human recombinant PRMT5 in complex with human recombinant MEP50 (Homo sapiens (Human), UniProt O14744). Put plainly: PRMT5/MEP50 AlphaLISA enzyme inhibitory assay. It is filed as biochemical. The following applies: PRMT5/MEP50 25 nM, SAM 10 μM, Biotin-H4 peptide 30 nM. From the text: Human recombinant PRMT5 in complex with human recombinant MEP50, co-expressed in an insect cell/baculovirus expression system was purchased from Reaction Biology (Malvern, Pa.). […] Anti-H4R3-Me AlphaLISA acceptor beads and Streptavidin labeled AlphaLISA donor beads were obtained from PerkinElmer (Waltham, Mass.). S-adenosylmethionine (SAM), Tween20, dimethylsulfoxide (DMSO), and Tris buffer were obtained from Sigma at the highest level of purity available.
Human recombinant PRMT5 in complex with human recombinant MEP50, sequence (O14744 whole entry): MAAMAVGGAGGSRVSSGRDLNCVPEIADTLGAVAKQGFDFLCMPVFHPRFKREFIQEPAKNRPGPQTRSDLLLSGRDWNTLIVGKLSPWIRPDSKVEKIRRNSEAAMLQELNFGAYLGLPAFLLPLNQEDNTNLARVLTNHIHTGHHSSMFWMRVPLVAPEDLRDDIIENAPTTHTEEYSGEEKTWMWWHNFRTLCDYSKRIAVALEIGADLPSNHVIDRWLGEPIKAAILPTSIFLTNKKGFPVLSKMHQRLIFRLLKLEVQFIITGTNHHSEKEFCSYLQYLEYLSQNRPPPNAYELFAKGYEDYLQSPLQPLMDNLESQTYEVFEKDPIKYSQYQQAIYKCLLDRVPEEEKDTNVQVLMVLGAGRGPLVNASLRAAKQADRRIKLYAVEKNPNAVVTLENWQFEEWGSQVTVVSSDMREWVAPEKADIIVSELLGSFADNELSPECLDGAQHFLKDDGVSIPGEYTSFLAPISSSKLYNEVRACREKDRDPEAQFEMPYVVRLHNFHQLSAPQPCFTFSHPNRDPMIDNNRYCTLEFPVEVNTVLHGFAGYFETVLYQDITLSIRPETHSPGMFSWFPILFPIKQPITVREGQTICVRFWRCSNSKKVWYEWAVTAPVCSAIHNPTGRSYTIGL
Human recombinant PRMT5 in complex with human recombinant MEP50, sequence (Q9BQA1 whole entry partner): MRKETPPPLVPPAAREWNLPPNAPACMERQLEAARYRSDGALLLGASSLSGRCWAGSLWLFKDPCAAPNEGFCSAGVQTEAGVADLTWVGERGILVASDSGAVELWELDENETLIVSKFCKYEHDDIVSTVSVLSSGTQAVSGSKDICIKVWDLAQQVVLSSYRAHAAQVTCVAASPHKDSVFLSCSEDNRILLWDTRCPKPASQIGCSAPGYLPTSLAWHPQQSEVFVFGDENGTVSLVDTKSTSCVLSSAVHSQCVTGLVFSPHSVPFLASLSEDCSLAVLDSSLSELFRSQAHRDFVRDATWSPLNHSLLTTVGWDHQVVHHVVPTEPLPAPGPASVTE
General Procedure for PRMT5/MEP50 AlphaLISA Enzyme Inhibitory Assays: Assays were performed in the buffer consisting of 50 mM Tris, pH 8.5, 5 mM MgCl2, 50 mM NaCl with 0.01% Tween20 and 1 mM DTT added right before the assay. 2.5 μL of compound solution in the assay buffer with 4% DMSO and 5 μL of PRMT5/MRP50 complex/SAM mixture solution in the assay buffer which was pre-incubated for 30 minutes were added into a white low volume 384 well microtiter plate. This mixture solution was incubated for 15 minutes with gentle shaking at room temperature. Methyl transfer reaction was initiated by adding 2.5 μL of Biotin-H4 (1-21) peptide substrate solution in the assay buffer. Final concentrations of PRMT5/MEP50, SAM, Biotin-H4 peptide substrate, and DMSO were 25 nM, 10 μM, 30 nM, and 1%, respectively. The reaction was allowed to perform for 120 minutes in dark with gentle shaking at room temperature after which 5 μL of Anti-H4R3-Me AlphaLISA acceptor beads in detection buffer from the manufacturer was added into the reaction mixture followed by incubation for 60 minutes. 10 μL of Streptavidin labeled AlphaLISA donor beads in detection buffer was added into the mixture followed by 30 minute incubation. Final acceptor and donor beads concentrations were 10 μg/mL. Plates were read on an Envision multimode plate reader from PerkinElmer (Waltham Mass., USA) with an excitation wavelength of 680 nm and emission wavelength of 615 nm. IC50 values of inhibitors were obtained by fitting the fluorescence intensity vs inhibitor concentrations in a sigmoidal dose-response curve (variable slopes, four parameters) using Prism 7 (La Jolla, Calif.).
A general note: In Alpha technology, singlet oxygen from a donor bead excites a nearby acceptor bead.
For `O=C1c2cc(Nc3cnccn3)ccc2OCCN1C[C@H](O)CN1CCc2ccccc2C1` [Compound 38, (R)-4-(3-(3,4-dihydroisoquinolin-2(1H)-yl)-2-hydroxypropyl)-7-(pyrazin-2-ylamino)-3,4-dihydrobenzo[f][1,4]oxazepin-5(2H)-one], the pIC50 was 7.87. Then `CC(=O)N1CCC(Nc2cnc3c(c2)C(=O)N(CC(O)CN2CCc4ccccc4C2)CC3)CC1` (stereo not drawn) [Compound 19, 3-((1-acetylpiperidin-4-yl)amino)-6-(3-(3,4-dihydroisoquinolin-2(1H)-yl)-2-hydroxypropyl)-7,8-dihydro-1,6-naphthyridin-5(6H)-one], with 6.21. Then `O=C1c2cc(Nc3cccnn3)ccc2OCCN1C[C@H](O)CN1CCc2ccccc2C1` [Compound 39, (R)-4-(3-(3,4-dihydroisoquinolin-2(1H)-yl)-2-hydroxypropyl)-7-(pyridazin-3-ylamino)-3,4-dihydrobenzo[f][1,4]oxazepin-5(2H)-one], with 7.65; and `CC(=O)N1CCC(Nc2cc3c(cc2F)OCCN(C[C@@H](O)CN2CCc4ccccc4C2)C3=O)CC1` [Compound 17b, (S)-7-((1-acetylpiperidin-4-yl)amino)-4-(3-(3,4-dihydroisoquinolin-2(1H)-yl)-2-hydroxypropyl)-8-fluoro-3,4-dihydrobenzo[f][1,4]oxazepin-5(2H)-one], with 6.14. Next, `Cn1ccc(Nc2ccc3c(c2)C(=O)N(C[C@H](O)CN2CCc4ccccc4C2)CCO3)cc1=O` [Compound 40, (R)-4-(3-(3,4-dihydroisoquinolin-2(1H)-yl)-2-hydroxypropyl)-7-((1-methyl-2-oxo-1,2-dihydropyridin-4-yl)amino)-3,4-dihydrobenzo[f][1,4]oxazepin-5(2H)-one]: 7.91; `O=C1c2cc(Nc3cnn(C4CCOCC4)c3)ccc2CCN1CC(O)CN1CCc2ccccc2C1` (stereo not drawn) [Compound 25, 2-(3-(3,4-dihydroisoquinolin-2(1H)-yl)-2-hydroxypropyl)-7-((1-(tetrahydro-2H-pyran-4-yl)-1H-pyrazol-4-yl)amino)-3,4-dihydroisoquinolin-1(2H)-one]: 8.00. On to `O=C1c2cc(Nc3ccnnc3)ccc2OCCN1CC(O)CN1CCc2ccccc2C1` (racemic) [Compound 30, 4-(3-(3,4-dihydroisoquinolin-2(1H)-yl)-2-hydroxypropyl)-7-(pyridazin-4-ylamino)-3,4-dihydrobenzo[f][1,4]oxazepin-5(2H)-one], for which the pIC50 was 7.89. Then `CC1Cc2ccc(NC3COC3)cc2C(=O)N1CC(O)CN1CCc2ccccc2C1` (stereo not drawn) [Compound 21, 2-(3-(3,4-dihydroisoquinolin-2(1H)-yl)-2-hydroxypropyl)-3-methyl-7-(oxetan-3-ylamino)-3,4-dihydroisoquinolin-1(2H)-one], with 6.32; and `CC(=O)N1CCC(Nc2ccc3c(c2)C(=O)N(CC(O)CN2CCc4ccccc4C2)CC3)CC1` (racemic) [Compound 24, 7-((1-acetylpiperidin-4-yl)amino)-2-(3-(3,4-dihydroisoquinolin-2(1H)-yl)-2-hydroxypropyl)-3,4-dihydroisoquinolin-1(2H)-one], with 7.85; and `CC1(C)CN(CC(O)CN2CCc3ccccc3C2)C(=O)c2cc(NC3COC3)ccc21` (stereo not drawn) [Compound 15, 2-(3-(3,4-dihydroisoquinolin-2(1H)-yl)-2-hydroxypropyl)-4,4-dimethyl-7-(oxetan-3-ylamino)-3,4-dihydroisoquinolin-1(2H)-one], with 6.66. As for `O=C1c2cc(NC3COC3)ccc2OCCN1CC(O)CN1CCc2ccccc2C1` (stereo not drawn) [Compound 5, 4-(3-(3,4-dihydroisoquinolin-2(1H)-yl)-2-hydroxypropyl)-7-(oxetan-3-ylamino)-3,4-dihydrobenzo[f][1,4]oxazepin-5(2H)-one], the pIC50 was 6.88.

On to `CN1CCN(CC(O)CN2CCc3ccccc3C2)C(=O)c2cc(Nc3ccnnc3)ccc21` (stereo not drawn) [Compound 45, 4-(3-(3,4-dihydroisoquinolin-2(1H)-yl)-2-hydroxypropyl)-1-methyl-7-(pyridazin-4-ylamino)-1,2,3,4-tetrahydro-5H-benzo[e][1,4]diazepin-5-one], for which the pIC50 is 8.02. Next, `O=c1c2cc(Nc3ccnnc3)ccc2cnn1CC(O)CN1CCc2ccccc2C1` (stereo not drawn) [Compound 33, 2-(3-(3,4-dihydroisoquinolin-2(1H)-yl)-2-hydroxypropyl)-7-(pyridazin-4-ylamino)phthalazin-1(2H)-one]: 7.65; `O=c1c2cc(Nc3ccnnc3)ccc2ccn1CC(O)CN1CCc2ccccc2C1` (stereo not drawn) [Compound 32, 2-(3-(3,4-dihydroisoquinolin-2(1H)-yl)-2-hydroxypropyl)-7-(pyridazin-4-ylamino)isoquinolin-1(2H)-one]: 7.43; `O=C1c2cc(N[C@@H]3CCOC3)ccc2CCN1C[C@@H](O)CN1CCc2ccccc2C1` [Compound 11, 2-((S)-3-(3,4-dihydroisoquinolin-2(1H)-yl)-2-hydroxypropyl)-7-(((R)-tetrahydrofuran-3-yl)amino)-3,4-dihydroisoquinolin-1(2H)-one]: 6.34.

For `O=C1c2cc(Nc3cnn(C4COC4)c3)ccc2CCN1CC(O)CN1CCc2ccccc2C1` (stereo not drawn) [Compound 22, 2-(3-(3,4-dihydroisoquinolin-2(1H)-yl)-2-hydroxypropyl)-7-((1-(oxetan-3-yl)-1H-pyrazol-4-yl)amino)-3,4-dihydroisoquinolin-1(2H)-one], the pIC50 was 7.68.

With `CC1(C)CN(CC(O)CN2CCc3ccccc3C2)C(=O)c2cc(Nc3ccnnc3)ccc21` (stereo not drawn) [Compound 34, 2-(3-(3,4-dihydroisoquinolin-2(1H)-yl)-2-hydroxypropyl)-4,4-dimethyl-7-(pyridazin-4-ylamino)-3,4-dihydroisoquinolin-1(2H)-one], the pIC50 was 7.80. Consider `Cn1cc(Nc2ccc3c(c2)C(=O)N(C[C@@H](O)CN2CCc4ccccc4C2)CCO3)cn1` [Compound 29b, (S)-4-(3-(3,4-dihydroisoquinolin-2(1H)-yl)-2-hydroxypropyl)-7-((1-methyl-1H-pyrazol-4-yl)amino)-3,4-dihydrobenzo[f][1,4]oxazepin-5(2H)-one], for which the pIC50 is 6.90.

Take `O=C1c2cc(NC3CCOCC3)cnc2CCN1CC(O)CN1CCc2ccccc2C1` (stereo not drawn) [Compound 18, 6-(3-(3,4-dihydroisoquinolin-2(1H)-yl)-2-hydroxypropyl)-3-((tetrahydro-2H-pyran-4-yl)amino)-7,8-dihydro-1,6-naphthyridin-5(6H)-one]: the pIC50 was 5.65. In the case of `Cn1cc(Nc2ccc3c(c2)C(=O)N(C[C@@H](O)CN2CCc4ccccc4C2)CC3)cn1` [Compound 12b, (S)-2-(3-(3,4-dihydroisoquinolin-2(1H)-yl)-2-hydroxypropyl)-7-((1-methyl-1H-pyrazol-4-yl)amino)-3,4-dihydroisoquinolin-1(2H)-one], the pIC50 was 6.63. With `CN1CC(Nc2ccc3c(c2)C(=O)N(C[C@H](O)CN2CCc4ccccc4C2)CCO3)CC1=O` (stereo partly drawn) [Compound 43, 4-((R)-3-(3,4-dihydroisoquinolin-2(1H)-yl)-2-hydroxypropyl)-7-((1-methyl-5-oxopyrrolidin-3-yl)amino)-3,4-dihydrobenzo[f][1,4]oxazepin-5(2H)-one], the pIC50 is 7.29.
